From patent US6281363A, “Cyclic hydrazine derivatives” (Hoffmann-La Roche Inc., priority 1998, dated 2001)

System: LPS-induced TNF-α release
Assay: inhibition of LPS-induced TNF-α release from THP1 cells (TNF-α by ELISA)
Type: cell-based
Details: Homo sapiens, THP-1, LPS 2 mg/ml, 0.5 hour preincubation with compound, 3 hours at 37° C. with LPS, read-out: IC50 (concentration of test compound which brings about 50% inhibition of LPS-induced TNF-α release)
Description: Aliquots (200 μl) of the cell suspension were plated out on 96 well culture plates and incubated for 0.5 hour at 37° C. prior to the addition of the test compounds. The latter were dissolved in dimethyl sulphoxide (DMSO) to a stock concentration of 1.2 mM which was diluted with phosphate buffered saline/10% DMSO solution to provide test compounds in final concentrations of 10^-9 to 10^-5 M, with each concentration being tested in duplicate. The cells were incubated with the test compounds for 0.5 hour at 37° C., LPS (bacterial lipopolysaccharide) was then added to a concentration of 2 mg/ml and incubation was continued for 3 hours at 37° C. in an atmosphere containing 5% CO2 and at 95% relative humidity. After centrifugation at 260 g for 10 minutes an aliquot of each supernatant was removed and the amount of TNF-α was estimated by ELISA (R & D Systems Europe Ltd., Abingdon, England).

SMILES	IC50
CC(C)C[C@@H](C(=O)NN1C(=O)CNC1=O)[C@H](C/C=C/c1ccccc1)C(=O)NO [Compound A, (E)-2(R)-[1(S)-(Hydroxycarbamoyl)-4-phenyl-3-butenyl]-4-methyl-N-(2,5-dioxo-1-imidazolidinyl)valeramide]	280 nM
CC(C)C[C@@H](C(=O)NN1C(=O)CNCC1=O)[C@H](CCCc1ccccc1)C(=O)NO [Compound E, 2(R)-[1(S)-(Hydroxycarbamoyl)-4-phenylbutyl]-4-methyl-N-(2,6-dioxo-1-piperazinyl)valeramide p-toluenesulphonate]	1450 nM
CC(C)C[C@@H](C(=O)Nn1c(=O)[nH]c2ccsc2c1=O)[C@H](CCCc1ccccc1)C(=O)NO [Compound N, N-(1,2,3,4-Tetrahydro-2,4-dioxothieno[3,2-d]pyrimidin-3-yl)-2(R)-[1(S)-(hydroxycarbamoyl)-4-phenylbutyl]-4-methylvaleramide]	172 nM
CC(C)C[C@@H](C(=O)NN1C(=O)[C@H](C(C)C)NC1=S)[C@H](CCCc1ccccc1)C(=O)NO [Compound J, 2(R)-[1(S)-(Hydroxycarbamoyl)-4-phenylbutyl]-N-(4(S)-isopropyl-5-oxo-2-thioxo-1-imidazolidinyl)-4-methylvaleramide]	597 nM
CC(C)C[C@@H](C(=O)Nn1c(=O)[nH]c2cscc2c1=O)[C@H](CCCc1ccccc1)C(=O)NO [Compound O, N-(1,2,3,4-Tetrahydro-2,4-dioxothieno[3,4-d]pyrimidin-3-yl)-2(R)-[1(S)-(hydroxycarbamoyl)-4-phenylbutyl]-4-methylvaleramide]	177 nM
CC(C)C[C@@H](C(=O)NN1C(=O)CNC1=O)[C@H](CCCC1CCCCC1)C(=O)NO [Compound C, 2(R)-[4-Cyclohexyl-1(S)-(hydroxycarbamoyl)butyl]-4-methyl-N-(2,5-dioxo-1-imidazolidinyl)valeramide]	242 nM
CC(C)C[C@@H](C(=O)NN1C(=O)CNC1=O)[C@H](Cc1ccc(-c2ccccc2)cc1)C(=O)NO [Compound S, 2(R)-[2-(4-Biphenylyl)-1(S)-(hydroxycarbamoyl)ethyl]-N-(2,5-dioxo-1-imidazolidinyl)-4-methylvaleramide]	308 nM
CC[C@H](C)[C@@H]1NC(=O)N(NC(=O)[C@H](CC(C)C)[C@H](C/C=C/c2ccccc2)C(=O)NO)C1=O [Compound K, (E)-2(R)-[1(S)-(Hydroxycarbamoyl)-4-phenyl-3-butenyl]-N-[4(S)-(1(S)-methylpropyl)-2,5-dioxo-1-imidazolidinyl]-4-methylvaleramide]	162 nM
COC[C@@H]1NC(=O)N(NC(=O)[C@H](CC(C)C)[C@H](CCCc2ccccc2)C(=O)NO)C1=O [Compound P]	346 nM
CC(C)C[C@@H](C(=O)NN1C(=O)NC2(CCN(C(=O)OCc3ccccc3)CC2)C1=O)[C@H](CCCc1ccccc1)C(=O)NO [Compound M, Benzyl 3-[2(R)-[1(S)-(hydroxycarbamoyl)-4-phenylbutyl]-4-methylvaleramido]-2,4-dioxo-1,3,8-triazaspiro[4,5]decane-8-carboxylate]	620 nM
CC(C)C[C@@H](C(=O)NN1C(=O)N[C@@H](C(C)C)C1=O)[C@H](CCCc1ccccc1)C(=O)NO [Compound F, 2(R)-[1(S)-(Hydroxycarbamoyl)-4-phenylbutyl]-N-(4(S)-isopropyl-2,5-dioxo-1-imidazolidinyl)-4-methylvaleramide]	156 nM
CC(C)C[C@@H](C(=O)NN1C(=O)CNC1=O)[C@H](CCCc1ccccc1)C(=O)NO [Compound Q, 2(R)-[1(S)-(Hydroxycarbamoyl)-4-phenylbutyl]-4-methyl-N-(2,5-dioxo-1-imidazolidinyl)valeramide]	234 nM
CC(C)C[C@@H](C(=O)NN1C(=O)NCCS1(=O)=O)[C@H](C/C=C/c1ccccc1)C(=O)NO [Compound D, (E)-N-(Tetrahydro-3-oxo-2H-1,2,4-thiadiazin-2-yl)-2(R)-[1(S)-(hydroxycarbamoyl)-4-phenyl-3-butenyl]-4-methylvaleramide S,S-dioxide]	389 nM
CC(C)C[C@@H](C(=O)NN1C(=O)N[C@@H](CO)C1=O)[C@H](C/C=C/c1ccccc1)C(=O)NO [Compound L, (E)-2(R)-[1(S)-(Hydroxycarbamoyl)-4-phenyl-3-butenyl]-N-[4(S)-(hydroxymethyl)-2,5-dioxo-1-imidazolidinyl]-4-methylvaleramide]	302 nM
CC[C@H](C)[C@@H]1NC(=O)N(NC(=O)[C@H](CC(C)C)[C@H](CCCc2ccccc2)C(=O)NO)C1=O [Compound G]	147 nM
CSCC[C@@H]1NC(=O)N(NC(=O)[C@H](CC(C)C)[C@H](CCCc2ccccc2)C(=O)NO)C1=O [Compound H, 2(R)-[1(S)-(Hydroxycarbamoyl)-4-phenylbutyl]-4-methyl-N-[4(S)-[2-(methylthio)ethyl]-2,5-dioxo-1-imidazolidinyl]valeramide]	234 nM
CC(=O)N1CCC2(CC1)NC(=O)N(NC(=O)[C@H](CC(C)C)[C@H](CCCc1ccccc1)C(=O)NO)C2=O [Compound R, 1-(8-Acetyl-2,4-dioxo-1,3,8-triazaspiro[4. 5]decan-3-yl)-2(R)-[1(S)-(hydroxycarbamoyl)-4-phenylbutyl]-4-methylvaleramide]	481 nM
CC(C)C[C@@H](C(=O)NN1C(=O)N[C@@H](CO)C1=O)[C@H](CCCc1ccccc1)C(=O)NO [Compound I, 2(R)-[1(S)-(Hydroxycarbamoyl)-4-phenylbutyl]-N-[4(S)-(hydroxymethyl)-2,5-dioxo-1-imidazolidinyl]-4-methylvaleramide]	387 nM
CC(C)C[C@@H](C(=O)NN1C(=O)CCNC1=O)[C@H](C/C=C/c1ccccc1)C(=O)NO [Compound B, (E)-N-(Hexahydro-2,6-dioxo-1-pyrimidinyl)-2(R)-[1(S)-(hydroxycarbamoyl)-4-phenyl-3-butenyl]-4-methylvaleramide]	382 nM
